Results published in publication PMC7265429, “Characterization of a new small-molecule inhibitor of HDAC6 in glioblastoma” (Cell Death & Disease, 2020).

Test system: GNS166 cells
Experiment: Microarray whole-transcriptome gene expression analysis
Assay type: cell-based, human
Protocol: Whole-transcriptome analysis was performed from 300 ng of RNA using HuGene-2_0-st-v1 expression array (Affymetrix), which covers 48,226 transcripts. Raw data were first checked for quality purposes through the Affymetrix® Expression Console™ Software v1.4.1 and TAC software v4.0. Then, data were normalized using the Robust Multi-array Average (RMA) and analyzed by Limma tool. Probesets with FDR-corrected p-values smaller than 0.05 were selected. Functional enrichment on Gene Ontology (GO) biological processes was performed on a smaller subset of the differentially expressed genes (corrected p-value < 0.001) by means of Broad Institute GSEA. […] The data that support this study have been deposited in NCBI´s Gene Expression Omnibus and are accessible through GEO series accession number GSE143887.

[1] = sheet DMSO-SAHA_DOWN, microarray

In the case of `O=C(CCCCCCC(=O)Nc1ccccc1)NO` [SAHA, Suberoylanilide hydroxamic acid], the “logFC TTC7B (transcript TC1400009967.hg.1)” value [1] is reported as -1.063, the “logFC TTC28 (transcript TC2200008356.hg.1)” value [1] is reported as -1.091 and the “logFC TXNDC15 (transcript TC0500008705.hg.1)” value [1] is reported as -1.511. The “logFC USE1 (transcript TC1900007313.hg.1)” value [1] was -1.0842, the “logFC VCAN (transcript TC0500007972.hg.1)” value [1] was -1.305 and the “logFC YAP1 (transcript TC1100008904.hg.1)” value [1] was -1.463. The “logFC ZDHHC4 (transcript TC0700006649.hg.1)” value [1] was -0.9579, the “logFC ZNF43 (transcript TC1900010163.hg.1)” value [1] was -0.8461 and the “logFC ZNF107 (transcript TC0700013370.hg.1)” value [1] was -1.056. For the same molecule, the “logFC ZNF805 (transcript TC1900008988.hg.1)” value [1] was -0.8747, the “logFC geneSymbol NA (transcript 23064083)” value [1] was -1.061 and the “logFC geneSymbol NA (transcript 23066345)” value [1] was -1.581. The “logFC geneSymbol NA (transcript 23066351)” value [1] was -1.258, the “logFC geneSymbol NA (transcript 23066370)” value [1] was -1.256 and the “logFC geneSymbol NA (transcript 23066378)” value [1] was -1.258. The “logFC geneSymbol NA (transcript 23075414)” value [1] was -1.568, the “logFC geneSymbol NA (transcript 23075613)” value [1] was -0.9478 and the “logFC geneSymbol NA (transcript 23075631)” value [1] was -0.8653. For the same molecule, the “logFC geneSymbol NA (transcript 23075715)” value [1] was -0.9535, the “logFC geneSymbol NA (transcript 23075786)” value [1] was -0.9478 and the “logFC geneSymbol NA (transcript 23075802)” value [1] was -0.9222. The “logFC geneSymbol NA (transcript 23075888)” value [1] was -0.8842, the “logFC geneSymbol NA (transcript 23075961)” value [1] was -0.9103 and the “logFC geneSymbol NA (transcript 23076100)” value [1] was -0.9321. The “logFC geneSymbol NA (transcript 23076182)” value [1] was -0.9773, the “logFC geneSymbol NA (transcript 23076263)” value [1] was -0.9293 and the “logFC geneSymbol NA (transcript 23076348)” value [1] was -0.9199. The “logFC geneSymbol NA (transcript 23076424)” value [1] was -0.8654, the “logFC geneSymbol NA (transcript 23076493)” value [1] was -0.9827 and the “logFC geneSymbol NA (transcript HTA2-pos-3670232_st)” value [1] was -0.8727. The “logFC geneSymbol NA (transcript HTA2-pos-3670240_st)” value [1] was -1.133, the “logFC geneSymbol NA (transcript HTA2-pos-PSR05023592.hg.1)” value [1] was -0.8946 and the “logFC geneSymbol NA (transcript HTA2-pos-PSR05035203.hg.1)” value [1] was -1.027. For the same molecule, the “logFC geneSymbol NA (transcript HTA2-pos-PSR17008061.hg.1)” value [1] was -0.9289, the “logFC geneSymbol NA (transcript HTA2-pos-PSR17008062.hg.1)” value [1] was -0.8972 and the “logFC geneSymbol NA (transcript HTA2-pos-PSR17008080.hg.1)” value [1] was -0.8914. The “logFC geneSymbol NA (transcript HTA2-pos-PSR17008100.hg.1)” value [1] was -0.9888, the “logFC geneSymbol NA (transcript HTA2-pos-PSR17013956.hg.1)” value [1] was -1.322 and the “logFC geneSymbol NA (transcript HTA2-pos-PSR19006615.hg.1)” value [1] was -0.8048. For the same molecule, the “logFC transcript 23071521 (geneSymbol NA)” value (transcript 23071521, DMSO vs 5 µM SAHA, upregulated genes) was 0.9492, the “logFC transcript 23074028 (geneSymbol NA)” value (transcript 23074028, DMSO vs 5 µM SAHA, upregulated genes) was 1.15 and the “logFC REPS2” value (transcript TC0X00006704.hg.1, DMSO vs 5 µM SAHA, upregulated genes) was 2.016. The “logFC FAM3C2” value (transcript TC0X00006789.hg.1, DMSO vs 5 µM SAHA, upregulated genes) was 1.058, the “logFC TMEM35” value (transcript TC0X00007935.hg.1, DMSO vs 5 µM SAHA, upregulated genes) was 1.065 and the “logFC SMIM10” value (transcript TC0X00008492.hg.1, DMSO vs 5 µM SAHA, upregulated genes) was 1.0804. The “logFC CDR1” value (transcript TC0X00008596.hg.1, DMSO vs 5 µM SAHA, upregulated genes) was 2.1035, the “logFC GEMIN8” value (transcript TC0X00009107.hg.1, DMSO vs 5 µM SAHA, upregulated genes) was 1.085 and the “logFC TAB3” value (transcript TC0X00009339.hg.1, DMSO vs 5 µM SAHA, upregulated genes) was 0.8188. The “logFC TMEM255A” value (transcript TC0X00010670.hg.1, DMSO vs 5 µM SAHA, upregulated genes) was 1.002, the “logFC DCAF6” value (transcript TC0100010518.hg.1, DMSO vs 5 µM SAHA, upregulated genes) was 0.8028 and the “logFC LAMC1” value (transcript TC0100010863.hg.1, DMSO vs 5 µM SAHA, upregulated genes) was 1.035. The “logFC PPP2R5A” value (transcript TC0100011520.hg.1, DMSO vs 5 µM SAHA, upregulated genes) was 0.853, the “logFC VASH2” value (transcript TC0100011552.hg.1, DMSO vs 5 µM SAHA, upregulated genes) was 1.211 and the “logFC FRRS1” value (transcript TC0100015049.hg.1, DMSO vs 5 µM SAHA, upregulated genes) was 1.197. For the same molecule, the “logFC PLD5” value (transcript TC0100017957.hg.1, DMSO vs 5 µM SAHA, upregulated genes) was 1.018, the “logFC FPGT-TNNI3K” value (transcript TC0100018235.hg.1, DMSO vs 5 µM SAHA, upregulated genes) was 1.058 and the “logFC PPP1R21” value (transcript TC0200007535.hg.1, DMSO vs 5 µM SAHA, upregulated genes) was 1.2457. The “logFC ACVR2A” value (transcript TC0200009596.hg.1, DMSO vs 5 µM SAHA, upregulated genes) was 1.001, the “logFC ACSL3” value (transcript TC0200010907.hg.1, DMSO vs 5 µM SAHA, upregulated genes) was 1.082 and the “logFC PIGF” value (transcript TC0200012489.hg.1, DMSO vs 5 µM SAHA, upregulated genes) was 1.027. For the same molecule, the “logFC RND3” value (transcript TC0200014597.hg.1, DMSO vs 5 µM SAHA, upregulated genes) was 0.9455, the “logFC ACVR1C” value (transcript TC0200014694.hg.1, DMSO vs 5 µM SAHA, upregulated genes) was 1.493 and the “logFC CMTM8” value (transcript TC0300006961.hg.1, DMSO vs 5 µM SAHA, upregulated genes) was 0.9182. The “logFC RNF13” value (transcript TC0300009147.hg.1, DMSO vs 5 µM SAHA, upregulated genes) was 1.125, the “logFC RAP2B” value (transcript TC0300009229.hg.1, DMSO vs 5 µM SAHA, upregulated genes) was 0.867 and the “logFC TIPARP” value (transcript TC0300009282.hg.1, DMSO vs 5 µM SAHA, upregulated genes) was 0.8784. The “logFC PPM1L” value (transcript TC0300009353.hg.1, DMSO vs 5 µM SAHA, upregulated genes) was 1.659, the “logFC POLR2H” value (transcript TC0300009706.hg.1, DMSO vs 5 µM SAHA, upregulated genes) was 0.9753 and the “logFC SLC9A9” value (transcript TC0300012686.hg.1, DMSO vs 5 µM SAHA, upregulated genes) was 2.129. For the same molecule, the “logFC TNIK” value (transcript TC0300013108.hg.1, DMSO vs 5 µM SAHA, upregulated genes) was 1.27, the “logFC EFHB” value (transcript TC0300013950.hg.1, DMSO vs 5 µM SAHA, upregulated genes) was 1.411 and the “logFC DGKG” value (transcript TC0300014083.hg.1, DMSO vs 5 µM SAHA, upregulated genes) was 2.595. The “logFC BMP2K” value (transcript TC0400007938.hg.1, DMSO vs 5 µM SAHA, upregulated genes) was 0.9344, the “logFC NPNT” value (transcript TC0400008331.hg.1, DMSO vs 5 µM SAHA, upregulated genes) was 1.698 and the “logFC HHIP” value (transcript TC0400008892.hg.1, DMSO vs 5 µM SAHA, upregulated genes) was 1.6713. The “logFC KIAA0922” value (transcript TC0400009038.hg.1, DMSO vs 5 µM SAHA, upregulated genes) was 1.219, the “logFC ETFDH” value (transcript TC0400009132.hg.1, DMSO vs 5 µM SAHA, upregulated genes) was 0.9226 and the “logFC CLCN3” value (transcript TC0400009284.hg.1, DMSO vs 5 µM SAHA, upregulated genes) was 0.8527. For the same molecule, the “logFC FAM175A” value (transcript TC0400011208.hg.1, DMSO vs 5 µM SAHA, upregulated genes) was 1.331, the “logFC PAPSS1” value (transcript TC0400011538.hg.1, DMSO vs 5 µM SAHA, upregulated genes) was 0.9468 and the “logFC ETNPPL” value (transcript TC0400011563.hg.1, DMSO vs 5 µM SAHA, upregulated genes) was 1.856. The “logFC PDE5A” value (transcript TC0400011712.hg.1, DMSO vs 5 µM SAHA, upregulated genes) was 1.355, the “logFC RAPGEF2” value (transcript TC0400012856.hg.1, DMSO vs 5 µM SAHA, upregulated genes) was 1.1527 and the “logFC FAM105A” value (transcript TC0500006816.hg.1, DMSO vs 5 µM SAHA, upregulated genes) was 1.369. For the same molecule, the “logFC SLC36A1” value (transcript TC0500009123.hg.1, DMSO vs 5 µM SAHA, upregulated genes) was 0.9929, the “logFC ARL15” value (transcript TC0500010731.hg.1, DMSO vs 5 µM SAHA, upregulated genes) was 2.128 and the “logFC GLRX” value (transcript TC0500011497.hg.1, DMSO vs 5 µM SAHA, upregulated genes) was 0.987. The “logFC NME5” value (transcript TC0500012160.hg.1, DMSO vs 5 µM SAHA, upregulated genes) was 1.606 and the “logFC PCDH1” value (transcript TC0500012294.hg.1, DMSO vs 5 µM SAHA, upregulated genes) was 1.432.
